Measured values reported in PMC11809919, “Quinoxaline-based anti-schistosomal compounds have potent anti-plasmodial activity” (PLOS Pathogens, 2025).
Values joined by “and” are separate entries in the source; they are usually repeats but may differ in a detail not shown here. Equal entries are not always repeated. Where two headings read alike, the source gives them in different places.

Key:
β-hematin formation = assay: Detergent-based β-hematin inhibition assay; type: biochemical; conditions: cell-free, NP40 detergent, pH 4.8
Procedure: From this stock 40 μL of each was delivered to wells in the final column (column 12) of a 96-well plate together with distilled water (120 μL) and NP40 detergent (305.5 mM, 40 μL). […] A serial dilution of each compound (100 μL) from column 12 to column 2 was carried out. Column 1 served as a blank with 0 mM sample. A 25 mM hematin stock solution was prepared by sonicating hemin in DMSO for one minute and then suspending 179 μL of this in a 1 M acetate buffer (20 mL, pH 4.8). […] The plate was covered and incubated at 37°C for 5 h. […] Acetone (60 μL) was then added to assist with hematin dispersion. The UV-vis absorbance of the plate wells was read on a SpectraMax […] plate reader.

[1] = test system: P. falciparum PfQRP1 mutants (G1612V, D1863Y, D1829*, D1829A); assay: Dose-response assay on CRISPR-edited PfQRP1 mutant lines; type: cell-based, Plasmodium falciparum
Procedure: To generate the PfQRP1 hydrolase mutants (D1829stop and D1829A), the pDC2-Cas9-gRNA-donor plasmid was transfected into the P. falciparum Dd2 line. Donor plasmid (50 µg) containing the sgRNA ([…]) and a pfqrp1 homology region of 672 bp, centred on the D1829 residue, was used for transfection. Transfectants were selected using 5 nM WR99210 (a potent inhibitor of P. falciparum dihydrofolate reductase (DHFR) provided by Jacobus Pharmaceuticals) for 8 days, followed by culturing without drug until parasites were observed. Parasite clones were obtained using limiting dilution cloning. Confirmation of gene editing was performed with allele-specific PCR (forward primer […] and reverse primer […]) and Sanger sequencing using an internal primer ([…]).
(§1) Compound dose-response assays were performed in flat-bottom 96-well plates. Tightly synchronized ring-stage parasites were diluted to 1% parasitemia at 2% hematocrit, and incubated with a two-fold serial dilution of compounds in complete medium. Untreated parasites or uninfected RBCs were included in the assay plate as controls. Parasite growth was assessed after 72 h by lysing parasites using 2× lysis buffer consisting of 10 mM Tris-HCl, 5 mM EDTA, 0.1% w/v saponin, and 1% v/v Triton X-100, supplemented with 2× SYBR Green I (Molecular Probes). The fluorescence was measured using a FluorStar Omega v5.11 plate reader. IC50 analysis was performed using GraphPad Prism v9, and statistical significance was determined by a two-sided Mann-Whitney U test. All assays were performed in technical duplicate with at least three biological replicates, as noted in the figure legends.

[2] = test system: 3D7 parasites (hemoglobin, 'free' heme, hemozoin); assay: Cellular heme fractionation assay; type: cell-based, Plasmodium falciparum; conditions: 3D7, 0.5 – 2.5× IC50, 30 h
Text: Cellular heme fractionation to measure the amounts of different heme species was thereafter conducted as previously described. […] Pellets were then resuspended in 1× PBS (pH 7.5) and an aliquot of the trophozoite suspension used to quantify the total number of trophozoites isolated using flow cytometry. Contents of the remaining trophozoite pellet were then released by hypotonic lysis and sonication. […] The UV−visible spectrum of each heme fraction as an Fe(III)heme−pyridine complex was measured using a multi-well plate reader (Spectramax 340PC; Molecular Devices). The total amount of each heme species was quantified using a heme standard curve whereby the mass of each heme-Fe species per trophozoite (fg/cell) was calculated by dividing the total amount of each heme species by the corresponding number of parasites in that fraction as determined by flow cytometry. Statistical comparisons and analyses for trends were made on GraphPad Prism version 10 using Students’ t-test with Welch correction. The total amount of heme obtained from each fraction was quantified using a standard curve prepared from a 100 μg/mL heme standard solution of hematin (porcine) in 0.3 M NaOH. Serial dilutions of this standard were carried out in a 96-well plate with 100 μL 0.3 M NaOH as a blank. […] The visible spectra of heme as Fe(III)heme-pyridine complex were recorded in a multi-well plate reader. The amount of heme Fe per cell was calculated by dividing the total heme Fe in each fraction by the number of cells determined in each fraction.

[3] = test system: Dd2-Polδ clones C22-1.1 and C22-2.1; assay: Dose-response assay on compound 22-selected clones (cross-resistance); type: cell-based, Plasmodium falciparum
Procedure: Resistance selections were performed using a mutator parasite line Dd2-Polδ with an elevated mutation rate. Three independent flasks with either 1×10^8 or 1×10^9 parasites each were treated with 5×IC50, and parasite death was monitored by microscopy (Giemsa staining). […] After eight days, compounds were removed from the media and the media was changed on alternate days. […] For recrudescent cultures, compound susceptibility was determined by dose-response assays. Parasite clones were obtained by limiting dilution and harvested for genomic DNA extraction, followed by whole-genome sequencing.
as §1

P. falciparum Dd2 = assay: Compound dose-response assay (72 h, SYBR Green I), Dd2; type: cell-based, Plasmodium falciparum; conditions: for Selectivity index HepG2/Dd2: HepG2 72 h CC50 / Pf Dd2 IC50; for IC50: Plasmodium falciparum, DD2, 72 h, 72 h, asexual blood stage
Procedure: (§2) P. falciparum parasites were cultured at 3% hematocrit in RPMI 1640 (Gibco) medium consisting of 0.5% Albumax II (Gibco), 25 mM HEPES (Sigma), 0.21% sodium bicarbonate, 1x GlutaMAX (Gibco), 25 μg/mL gentamicin (Gibco). A tri-gas mixture (1% O2, 3% CO2, and 96% N2) was used for parasite cultures. Parasites were synchronized using a sorbitol and Percoll density gradient method. The following parasite strains were used: 3D7, Dd2 (MR4, MRA-156, T. Wellems), GB4 (MR4, MRA-925, T. Wellems), UG659 (P. Rosenthal), Tanzania (MR4, MRA-1169, Michal Fried), Cam/PH0212C (R. Fairhurst), and Cam3.II/ PH0306-C (R. Fairhurst). Transfection was performed using ring-stage parasites (5–8% parasitemia) using a Gene Pulser Xcell (Biorad) electroporator.
as §1

HepG2 cells = test system: HepG2 cells; design: method as in Padalino et al. [13]; conditions: ref Padalino et al. [13], cited from earlier work
S. mansoni schistosomula = test system: S. mansoni schistosomula; design: method as in Padalino et al. [13]; conditions: ref Padalino et al. [13], cited from earlier work
P. falciparum 3D7 = assay: Compound dose-response assay (72 h, SYBR Green I), 3D7; type: cell-based, Plasmodium falciparum; conditions: for Change of anti-plasmodial activity relative to compound 22: 3D7 and Dd2; for Selectivity index HepG2/3D7: HepG2 72 h CC50 / Pf 3D7 IC50; for IC50: 72 h, asexual blood stage
Procedure: as §2, §1

[4] = read-out: βH Inhibition IC50, individual biological replicate
[5] = HepG2, 24 h, read-out: 24 h CC50
[6] = HepG2, 72 h, read-out: 72 h CC50
[7] = 72 h, read-out: 72 h -phenotype EC50
[8] = average of phenotype and motility, read-out: Average EC50
[9] = Plasmodium falciparum, 3D7, 72 h

| Compound | IC50 (β-hematin formation; [4]) | Effect of D1829 stop / D1829A PfQRP1 mutation on IC50 [1] | Levels of 'free' heme or hemozoin relative to untreated controls [2] | Shift in IC50 in compound 22-selected clones versus parental Dd2-Polδ [3] | IC50 (β-hematin formation; mean of two biological replicates, listed as chloroquine, read-out: βH Inhibition IC50, mean) | IC50 (β-hematin formation; mean of two biological replicates, read-out: βH Inhibition IC50, mean) | Selectivity index HepG2/Dd2 (P. falciparum Dd2) | IC50 (P. falciparum Dd2) | CC50 (HepG2 cells; [5]) | CC50 (HepG2 cells; [6]) | EC50 (S. mansoni schistosomula; [7]) | EC50 (S. mansoni schistosomula; [8]) | EC50 (S. mansoni schistosomula; read-out: Motility EC50) | Change of anti-plasmodial activity relative to compound 22 (P. falciparum 3D7) | Selectivity index HepG2/3D7 (P. falciparum 3D7) | IC50 (P. falciparum 3D7; [9]) | IC50 (P. falciparum 3D7) | Loss in potency (P. falciparum 3D7; relative to compound 22) |
| --- | --- | --- | --- | --- | --- | --- | --- | --- | --- | --- | --- | --- | --- | --- | --- | --- | --- | --- |
| 2-N,3-N-bis[3-(trifluoromethyl)phenyl]quinoxaline-2,3-diamine [MMV665794] | 257 µM and 217 µM | less potent | no significant changes |  |  |  |  |  |  |  |  |  |  |  |  |  |  |  |
| CNC(=O)CNc1cnc2ccc(-c3ccc(OC)c(OC)c3)cc2n1 [BQR695, 2-[[7-(3,4-dimethoxyphenyl)quinoxalin-2-yl]amino]-N-methylacetamide, reference compound] |  |  |  | no cross resistance |  |  |  |  |  |  |  |  |  |  |  |  |  |  |
| CCN(CC)CCCC(C)Nc1ccnc2cc(Cl)ccc12 (stereo not shown) [Chloroquine, chloroquine] | 16.7 µM and 14.5 µM |  | significant concentration-dependent increases |  | 16 µM | 15.6 µM |  |  |  |  |  |  |  |  |  |  |  |  |
| CC(=O)Nc1ccc2nc(Nc3ccc(Cl)c(Cl)c3)c(Nc3ccc(Cl)c(Cl)c3)nc2c1 [Compound 22c] |  |  |  |  |  |  | 25.4 | 0.181 µM | 8.6 µM | 4.59 µM | 3.04 µM | 2.91 µM | 2.79 µM | greatly diminished activity | 58.1 | 0.079 µM |  |  |
| O=C(Nc1ccc2nc(Nc3ccc(Cl)c(Cl)c3)c(Nc3ccc(Cl)c(Cl)c3)nc2c1)c1ccco1 [Compound 22f] |  |  |  |  |  |  | 14.9 | 0.382 µM | 14.8 µM | 5.69 µM | 1.91 µM | 1.95 µM | 2 µM | greatly diminished activity | 19.8 | 0.287 ± 0.0033 µM | 0.287 µM |  |
| O=[N+]([O-])c1ccc2nc(Nc3cccc(Cl)c3)c(Nc3cccc(Cl)c3)nc2c1 [Compound 25] |  |  |  |  |  |  | 9.2 | 0.0634 µM | 6.76 µM | 0.58 µM | 1.22 µM | 1.26 µM | 1.3 µM |  | 10.1 | 0.0577 µM |  |  |
| O=[N+]([O-])c1ccc2nc(Nc3ccc(Cl)cc3)c(Nc3ccc(Cl)cc3)nc2c1 [Compound 26] |  |  |  |  |  |  | 3.5 | 0.0368 µM | 13.1 µM | 0.13 µM | 0.42 µM | 0.41 µM | 0.39 µM |  | 4.3 | 0.0299 µM |  |  |
| O=[N+]([O-])c1ccc2nc(Nc3cccc(C(F)(F)F)c3)c(Nc3cccc(C(F)(F)F)c3)nc2c1 [Compound 30] |  |  |  | modest shift with one of the compound 22-resistant clones |  |  | 40.9 | 0.022 µM | 5.85 µM | 0.9 µM | 0.34 µM | 0.38 µM | 0.43 µM |  | 67.2 | 0.0134 µM |  |  |
| O=[N+]([O-])c1ccc2nc(Nc3ccc(F)c(C(F)(F)F)c3)c(Nc3ccc(F)c(C(F)(F)F)c3)nc2c1 [Compound 32] |  |  |  | modest shift with one of the compound 22-resistant clones |  |  | 24.1 | 0.0278 µM | 7.75 µM | 0.67 µM | 0.89 µM | 0.72 µM | 0.54 µM |  | 40.4 | 0.0166 µM |  |  |
| COc1ccc(Nc2nc3ccc([N+](=O)[O-])cc3nc2Nc2ccc(OC)c(C(F)(F)F)c2)cc1C(F)(F)F [Compound 35] |  |  |  | modest shift with one of the compound 22-resistant clones |  |  | 3.8 | 0.112 µM | 5.64 µM | 0.43 µM | 0.63 µM | 0.66 µM | 0.69 µM |  | 7.4 | 0.0578 µM |  |  |
| O=[N+]([O-])c1ccc2nc(NCCc3ccccc3)c(NCCc3ccccc3)nc2c1 [Compound 37] |  |  |  |  |  |  | 17.1 | 0.264 µM | 4.4 µM | 4.52 µM | 2.2 µM | 1.84 µM | 1.47 µM |  | 20.5 | 0.22 µM |  | ten-fold |
| C[C@H]1Cc2c([nH]c3cc(Cl)c(F)cc23)[C@@]2(N1)C(=O)Nc1ccc(Cl)cc12 [KAE609] | > 500 µM |  |  |  |  |  |  |  |  |  |  |  |  |  |  |  |  |  |
